Measured values as given in US7427599B2, “Biologically active peptide comprising Tyrosyl-seryl-valine(YSV)” (CMS Peptides Patent Holding Company Limited, priority 2003, dated 2008).
Marks after values point to notes of the source that are not given here. Peptide text beside a SMILES is read from it.

Tests used:
[1] = test system: Human liver cancer BEL7402 cells; test: Proliferation of cultured human liver cancer BEL7402 cells in vitro (MTT); assay type: cell-based; conditions: for % inhibition / OD value: 48 hours; for OD value: MTT OD570nm, negative control 0.36 ± 0.01
Experimental: Human liver cancer BEL7402 cells at logarithmic growth phase were detached by incubating for 2 to 3 minutes with phosphate buffer saline pH7.4 (PBS) containing 0.05% trypsin and 0.02% EDTA. The cells were examined by inverted phase contrast microscopy. The supernatant was removed after cytoplasm pyknosis and dilatation of cell compartment were observed. A few milliliters of RPMI-1640 culture medium with 10% FBS was added to terminate the digestion. The cells were harvested by gently blowing with a pipette. The suspended cells were collected by centrifugation at 150 g for 10 minutes, and washed twice by cold D-Hank's solution with re-suspension and centrifugation. The washed cells were re-suspended in RPMI-1640 medium with 10% FBS and adjusted to density of 5×10^4/ml. The treated BEL7402 cells were placed onto a 96 wells cell culture plate, 100 μl/well. The cells were incubated for 24 hours at 37° C., 5% CO2 for re-activation and attachment.
The experiment included three testing groups with different concentrations of YSV and a negative control. The final concentrations of YSV in culture medium were 20 μg/ml, 10 μg/ml, and 5 μg/ml. The YSV solution was replaced by RPMI-1640 culture medium with 10% FBS in the negative control group. Each group contained five parallel wells. The cells were incubated for 48 hours at 37° C., 5% CO2.
The cells were then pelleted by centrifugation at 150 g for 10 minutes. After the supernatant was removed, 100 μl/well MTT of 0.5 mg/ml in RPMI-1640 was added to the cell pellets and the cells were re-suspended by shaking for 2 minutes. Incubation was continued for 4 hours. The supernatant was removed after centrifugation at 150 g for 10 minutes. After blotted dry by filter paper, 100 μl/well 40 mM HCl-2-propanol was added to the cell pellets and shaken for 3 minutes. OD570nm of each well referenced at 630 nm was obtained by using ELISA reader.

[2] = test system: A549 human pulmonary carcinoma; test: A549 human pulmonary carcinoma xenograft in nude mice; assay type: in vivo, BALB/c (nu/nu) athymic nude mice; conditions: for Tumor inhibition index (%) / Tumor volume (cm^3) / Tumor weight: 40 days
Experimental: Healthy BALB/c (nu/nu) athymic nude mice (SPF, 4-5 weeks old, weighting 18-22 g) were purchased from Shanghai Tumor Academe of China Medical Academy of Science. In the first experiment, female was used. In the second experiment, male was used.
Select A549 human pulmonary carcinoma xenografts of diameter longer than 1 cm with good growth on nude mice. Aseptically excise the tumor mass, cut into pieces of 2-4 mm^3 and submerged in RPMI1640. Pulmonary carcinoma nude mice model was prepared by transplanting the tumor mass hypodermally to the back of healthy nude mice near to the neck via an incision at the ventral thorax.
The nude mice bearing A549 xenografts were randomly divided into groups of: saline control (0.2 ml/day), YSV groups of different dosages, and Cy control (0.2 mg/kg/day). The test substances were dissolved in 0.2 ml saline and administered intraperitoneally to the mice starting from the day after the transplantation, once per day for 40 consecutive days.
The general condition of the mice was observed daily. The mice were weighed every 3-4 days and the volume of the tumor was measured:
V=(⅙)πXYZ, where X, Y, and Z were the diameters of the tumor on the 3 planes.
The day after the last injection, the tumors were excised, weighted, and the volume measured. The tumors were examined for signs of necrosis. Tumor inhibition index=(average tumor weight of saline group−average tumor weight of test group)/average tumor weight of saline group×100%)
Statistical analysis was performed with SPSS software using one-way ANOVA analysis.

[3] = test system: Human cervical carcinoma Hela cells; test: Inhibition of growth of human cervical carcinoma Hela cells in vitro (MTT); assay type: cell-based; conditions: for % inhibition / OD570 nm: 48 hours; for OD570 nm: MTT, negative control 0.24 ± 0.01
Experimental: Human cervical carcinoma Hela cells at logarithmic growth phase were detached by incubating for 2 to 3 minutes with PBS containing 0.05% trypsin and 0.02% EDTA. The cells were examined by inverted phase contrast microscopy. The supernatant was removed after cytoplasm pyknosis and dilatation of cell compartment were observed. A few milliliters of RPMI-1640 medium with 10% FBS were added to terminate the digestion. The cells were harvested by gently blowing with a pipette. The cells were collected by centrifugation at 150 g for 10 minutes, and washed twice by cold Hank's solution with re-suspension and centrifugation. The cell pellets were re-suspended in RPMI-1640 medium with 10% FBS and adjusted to density of 5×10^4/ml. The treated cells were placed onto a 96 wells cell culture plate, 100 μl/well. The cells were incubated for 24 hours at 37° C., 5% CO2 for re-activation and attachment.
The experiment included two testing groups with different concentrations of YSV in culture medium, and a negative control with culture medium only. The final concentrations of YSV were 10 μg/ml and 5 μg/ml. Each group contained five parallel wells. 100 μl/well testing solution was added to the treated cells. The cells were incubated for 48 hours at 37° C., 5% CO2.
The cells were pelleted by centrifugation at 150 g for 10 minutes. The supernatant was discarded and 100 μl/well MTT of 0.5 mg/ml in RPMI-1640 was added to the cell pellets and the cells were re-suspended by shaking for 2 minutes. Incubation was continued for 4 hours. The supernatant was discarded after centrifugation at 150 g for 10 minutes. After blotted dry by filter paper, 100 μl/well 40 mM HCl-2-propanol was added to the cell pellets and shaken for 3 minutes. OD570 nm of each well referenced at 630 nm was obtained by using ELISA reader.

SMILES: CC(C)[C@H](NC(=O)[C@H](CO)NC(=O)[C@@H](N)Cc1ccc(O)cc1)C(=O)O [YSV, L-Tyrosyl-L-seryl-L-valine] (H-Tyr-Ser-Val-OH)
- inhibition of growth of BEL7402 cells in vitro (conclusion) ([1]; 5 μg/ml to 20 μg/ml, p<0.05): able to inhibit the growth of human hepatocellular carcinoma BEL7402 cells in vitro
- % inhibition ([1]; 5 μg/ml): 9.8%
- OD value ([1]; 5 μg/ml): 0.31 ± 0.01
- % inhibition ([1]; 10 μg/ml): 38.0%
- OD value ([1]; 10 μg/ml): 0.22 ± 0.01
- % inhibition ([1]; 20 μg/ml): 23.7%
- OD value ([1]; 20 μg/ml): 0.27 ± 0.01
- Tumor inhibition index (%) ([2]; experiment 1, female nude mice, 160 μg/kg/day i.p.): 32.8%
- Tumor volume (cm^3) ([2]; experiment 1, female nude mice, 160 μg/kg/day i.p., saline 1.87 ± 1.10): 0.92 ± 0.79* cm^3
- Tumor weight ([2]; experiment 1, female nude mice, 160 μg/kg/day i.p., saline 2.49 ± 1.02): 1.67 ± 0.97 g
- Tumor inhibition index (%) ([2]; experiment 1, female nude mice, 320 μg/kg/day i.p.): 32.2%
- Tumor volume (cm^3) ([2]; experiment 1, female nude mice, 320 μg/kg/day i.p., saline 1.87 ± 1.10): 0.84 ± 0.45* cm^3
- Tumor weight ([2]; experiment 1, female nude mice, 320 μg/kg/day i.p., saline 2.49 ± 1.02): 1.69 ± 0.70 g
- Tumor inhibition index (%) ([2]; experiment 1, female nude mice, 640 μg/kg/day i.p.): 37.4%
- Tumor volume (cm^3) ([2]; experiment 1, female nude mice, 640 μg/kg/day i.p., saline 1.87 ± 1.10): 1.17 ± 0.84 cm^3
- Tumor weight ([2]; experiment 1, female nude mice, 640 μg/kg/day i.p., saline 2.49 ± 1.02): 1.56 ± 1.08 g
- Tumor inhibition index (%) ([2]; experiment 2, male nude mice, 160 μg/kg/day i.p.): 50.8%
- Tumor volume (cm^3) ([2]; experiment 2, male nude mice, 160 μg/kg/day i.p., saline 1.34 ± 0.69): 0.78 ± 0.41 cm^3
- Tumor weight ([2]; experiment 2, male nude mice, 160 μg/kg/day i.p., saline 1.51 ± 0.79): 0.74 ± 0.31 g
- inhibition of growth of A549 xenograft in nude mice (conclusion) ([2]; suitable dosages, p<0.05 vs saline): able to inhibit the growth of nude mice-transplanted A549 human pulmonary carcinoma xenograft
- inhibition of growth of Hela cells in vitro (conclusion) ([3]; 5 μg/ml to 10 μg/ml, p<0.05): able to inhibit the growth of human cervical carcinoma Hela cells in vitro
- % inhibition ([3]; 5 μg/ml): 18.4%
- OD570 nm ([3]; 5 μg/ml): 0.22 ± 0.00
- % inhibition ([3]; 10 μg/ml): 19.6%
- OD570 nm ([3]; 10 μg/ml): 0.22 ± 0.01
